From ChEMBL document CHEMBL5678818, “Discovery of potent SOS1 inhibitors that block RAS activation via disruption of the RAS-SOS1 interaction” (Proc Natl Acad Sci U S A, 2019) come the findings set out here.

For experiment [1], the target named is Ephrin type-A receptor 2 (Homo sapiens) (UniProt P29317). Kind of experiment: Inhibition of EPHA2 (unknown origin) assessed as residual activity at 1000 nM by KINOMEscan analysis relative to control.
The target in experiment [2] is Macrophage-stimulating protein receptor (Homo sapiens) (UniProt Q04912). The experiment in a line: Inhibition of MST1R (unknown origin) assessed as residual activity at 1000 nM by KINOMEscan analysis relative to control.
Chain of Macrophage-stimulating protein receptor (Homo sapiens) (Q04912 25-304 limits assumed): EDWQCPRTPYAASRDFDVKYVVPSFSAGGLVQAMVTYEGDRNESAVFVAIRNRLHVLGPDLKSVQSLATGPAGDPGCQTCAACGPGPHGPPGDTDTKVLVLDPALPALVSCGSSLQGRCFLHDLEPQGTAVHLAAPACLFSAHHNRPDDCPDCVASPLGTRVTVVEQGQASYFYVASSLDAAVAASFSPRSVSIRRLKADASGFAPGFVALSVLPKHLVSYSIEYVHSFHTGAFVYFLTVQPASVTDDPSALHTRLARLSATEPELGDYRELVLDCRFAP
Chain of Macrophage-stimulating protein receptor (Homo sapiens) (Q04912 310-1400 limits assumed): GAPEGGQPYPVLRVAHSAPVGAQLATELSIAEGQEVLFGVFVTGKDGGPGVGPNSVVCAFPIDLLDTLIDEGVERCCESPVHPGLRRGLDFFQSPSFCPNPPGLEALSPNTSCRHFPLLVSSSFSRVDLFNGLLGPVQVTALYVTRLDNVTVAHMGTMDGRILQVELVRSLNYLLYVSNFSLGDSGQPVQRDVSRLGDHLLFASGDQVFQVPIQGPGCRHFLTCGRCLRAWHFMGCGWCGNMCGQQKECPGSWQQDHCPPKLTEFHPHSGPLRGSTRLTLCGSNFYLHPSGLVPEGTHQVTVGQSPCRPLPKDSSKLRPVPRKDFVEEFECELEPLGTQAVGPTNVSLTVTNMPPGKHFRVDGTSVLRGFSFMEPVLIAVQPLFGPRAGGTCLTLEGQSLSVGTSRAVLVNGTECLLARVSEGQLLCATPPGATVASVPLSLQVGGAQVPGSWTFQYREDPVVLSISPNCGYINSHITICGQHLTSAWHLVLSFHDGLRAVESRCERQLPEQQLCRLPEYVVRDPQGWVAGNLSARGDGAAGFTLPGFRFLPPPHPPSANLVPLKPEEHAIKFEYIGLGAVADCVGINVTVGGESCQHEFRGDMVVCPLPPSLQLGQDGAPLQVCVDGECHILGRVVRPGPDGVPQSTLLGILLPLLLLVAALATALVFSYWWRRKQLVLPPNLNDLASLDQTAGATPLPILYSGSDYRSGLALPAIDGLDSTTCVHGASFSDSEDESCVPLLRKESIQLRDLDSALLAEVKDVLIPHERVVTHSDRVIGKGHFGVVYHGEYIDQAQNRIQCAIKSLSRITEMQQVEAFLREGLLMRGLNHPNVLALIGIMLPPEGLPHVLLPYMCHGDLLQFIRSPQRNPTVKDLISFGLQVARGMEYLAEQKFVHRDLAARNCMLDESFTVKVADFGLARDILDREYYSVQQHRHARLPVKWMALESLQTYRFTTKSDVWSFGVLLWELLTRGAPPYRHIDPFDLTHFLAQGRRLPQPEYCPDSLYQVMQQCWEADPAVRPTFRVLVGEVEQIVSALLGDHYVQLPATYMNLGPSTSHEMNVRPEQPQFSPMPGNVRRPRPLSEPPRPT
In experiment [3] the target is T1, cAMP-dependent protein kinase catalytic subunit PRKX (Homo sapiens) (UniProt P51817).
T1 sequence (whole entry): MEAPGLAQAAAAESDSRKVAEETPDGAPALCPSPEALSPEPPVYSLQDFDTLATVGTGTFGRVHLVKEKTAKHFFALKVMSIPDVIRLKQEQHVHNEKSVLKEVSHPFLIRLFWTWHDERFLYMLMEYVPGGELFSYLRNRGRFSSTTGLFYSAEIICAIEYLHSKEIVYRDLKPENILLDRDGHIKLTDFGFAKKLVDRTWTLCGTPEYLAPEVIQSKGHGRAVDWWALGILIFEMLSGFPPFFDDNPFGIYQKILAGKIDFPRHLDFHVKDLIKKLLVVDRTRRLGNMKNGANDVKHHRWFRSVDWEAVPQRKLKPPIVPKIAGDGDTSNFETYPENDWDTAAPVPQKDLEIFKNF
Kind of experiment: Inhibition of PRKX (unknown origin) assessed as residual activity at 1000 nM by KINOMEscan analysis relative to control.

In experiment [4] the target is Ephrin type-A receptor 5 (Homo sapiens) (UniProt P54756). Kind of experiment: Inhibition of EPHA5 (unknown origin) assessed as residual activity at 1000 nM by KINOMEscan analysis relative to control.
Chain of Ephrin type-A receptor 5 (Homo sapiens) (P54756 whole entry): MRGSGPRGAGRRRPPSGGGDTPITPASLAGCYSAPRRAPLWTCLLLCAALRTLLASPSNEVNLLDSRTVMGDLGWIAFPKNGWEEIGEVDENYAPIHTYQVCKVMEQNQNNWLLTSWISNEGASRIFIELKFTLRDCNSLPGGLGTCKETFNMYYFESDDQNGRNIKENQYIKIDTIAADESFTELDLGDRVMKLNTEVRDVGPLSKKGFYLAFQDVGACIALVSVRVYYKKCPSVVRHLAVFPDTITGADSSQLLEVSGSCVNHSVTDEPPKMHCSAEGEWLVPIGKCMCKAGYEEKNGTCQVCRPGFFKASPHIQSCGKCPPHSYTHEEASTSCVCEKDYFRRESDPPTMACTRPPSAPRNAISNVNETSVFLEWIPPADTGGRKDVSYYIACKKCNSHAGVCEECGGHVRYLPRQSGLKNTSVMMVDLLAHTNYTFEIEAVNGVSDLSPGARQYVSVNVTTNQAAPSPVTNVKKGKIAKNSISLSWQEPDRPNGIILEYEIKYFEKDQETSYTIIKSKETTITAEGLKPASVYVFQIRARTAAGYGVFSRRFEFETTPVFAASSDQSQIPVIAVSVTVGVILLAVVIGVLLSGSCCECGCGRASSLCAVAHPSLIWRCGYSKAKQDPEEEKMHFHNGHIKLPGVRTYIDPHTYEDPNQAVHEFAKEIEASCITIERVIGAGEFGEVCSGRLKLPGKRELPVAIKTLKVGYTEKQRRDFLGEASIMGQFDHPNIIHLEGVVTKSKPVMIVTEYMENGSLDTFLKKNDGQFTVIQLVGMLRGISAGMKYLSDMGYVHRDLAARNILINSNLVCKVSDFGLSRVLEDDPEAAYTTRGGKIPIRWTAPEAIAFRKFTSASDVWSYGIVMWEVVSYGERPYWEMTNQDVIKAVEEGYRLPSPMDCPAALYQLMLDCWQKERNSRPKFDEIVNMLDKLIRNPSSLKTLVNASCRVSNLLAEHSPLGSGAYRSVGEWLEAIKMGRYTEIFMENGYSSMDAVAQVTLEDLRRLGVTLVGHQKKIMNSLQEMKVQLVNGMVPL
The target of experiment [5] is T2, Son of sevenless homolog 1 (Homo sapiens) (UniProt Q07889).
T2 sequence (whole entry): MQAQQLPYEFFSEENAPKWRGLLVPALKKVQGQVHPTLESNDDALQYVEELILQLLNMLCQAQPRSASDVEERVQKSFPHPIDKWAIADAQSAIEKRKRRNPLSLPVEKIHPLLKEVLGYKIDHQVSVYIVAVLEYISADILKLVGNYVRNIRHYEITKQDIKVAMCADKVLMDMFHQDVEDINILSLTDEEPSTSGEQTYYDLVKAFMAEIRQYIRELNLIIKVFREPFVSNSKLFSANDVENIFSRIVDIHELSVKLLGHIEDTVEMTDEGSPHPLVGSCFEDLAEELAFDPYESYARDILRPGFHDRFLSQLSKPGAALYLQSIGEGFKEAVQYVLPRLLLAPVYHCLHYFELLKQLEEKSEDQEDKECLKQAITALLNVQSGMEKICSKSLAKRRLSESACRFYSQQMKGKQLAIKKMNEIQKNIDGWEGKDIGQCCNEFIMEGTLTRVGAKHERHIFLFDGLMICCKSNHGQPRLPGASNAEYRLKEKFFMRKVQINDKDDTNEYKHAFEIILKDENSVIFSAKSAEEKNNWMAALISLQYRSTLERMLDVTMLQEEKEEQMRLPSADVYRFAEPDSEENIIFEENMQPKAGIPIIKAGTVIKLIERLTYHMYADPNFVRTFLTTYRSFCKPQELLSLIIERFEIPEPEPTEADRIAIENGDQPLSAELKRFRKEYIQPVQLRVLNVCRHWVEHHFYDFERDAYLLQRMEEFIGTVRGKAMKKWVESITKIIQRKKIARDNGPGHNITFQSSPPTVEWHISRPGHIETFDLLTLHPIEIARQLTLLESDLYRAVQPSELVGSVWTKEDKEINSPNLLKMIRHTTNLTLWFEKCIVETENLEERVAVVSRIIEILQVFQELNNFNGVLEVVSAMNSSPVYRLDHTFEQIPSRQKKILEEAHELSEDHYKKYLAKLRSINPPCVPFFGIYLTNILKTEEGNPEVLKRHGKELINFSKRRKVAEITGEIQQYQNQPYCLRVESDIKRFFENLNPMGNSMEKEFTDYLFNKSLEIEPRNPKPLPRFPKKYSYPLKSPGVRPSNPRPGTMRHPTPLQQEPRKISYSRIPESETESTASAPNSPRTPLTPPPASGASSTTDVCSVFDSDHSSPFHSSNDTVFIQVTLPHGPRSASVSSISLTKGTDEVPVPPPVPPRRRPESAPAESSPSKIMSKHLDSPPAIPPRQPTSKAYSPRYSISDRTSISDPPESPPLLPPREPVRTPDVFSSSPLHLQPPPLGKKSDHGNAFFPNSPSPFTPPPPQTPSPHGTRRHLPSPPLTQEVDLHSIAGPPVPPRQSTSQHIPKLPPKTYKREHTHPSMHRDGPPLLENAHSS
Kind of experiment: Stabilization of N-terminal His10-tagged wild-type recombinant human SOS1 catalytic domain (564 to 1049 residues) expressed in Escherichia coli assessed as change in melting temperature at 100 uM with heating from 25 to 85 degreeC by thermal shift assay.

Experiment [6] concerns the target Mitogen-activated protein kinase kinase kinase 1 (Homo sapiens) (UniProt Q13233). The experiment in a line: Inhibition of MAP3K1 (unknown origin) assessed as residual activity at 1000 nM by KINOMEscan analysis relative to control.
Experiment [7] deals with T3, Serine/threonine-protein kinase Sgk3 (Homo sapiens) (UniProt Q96BR1).
T3 sequence (whole entry): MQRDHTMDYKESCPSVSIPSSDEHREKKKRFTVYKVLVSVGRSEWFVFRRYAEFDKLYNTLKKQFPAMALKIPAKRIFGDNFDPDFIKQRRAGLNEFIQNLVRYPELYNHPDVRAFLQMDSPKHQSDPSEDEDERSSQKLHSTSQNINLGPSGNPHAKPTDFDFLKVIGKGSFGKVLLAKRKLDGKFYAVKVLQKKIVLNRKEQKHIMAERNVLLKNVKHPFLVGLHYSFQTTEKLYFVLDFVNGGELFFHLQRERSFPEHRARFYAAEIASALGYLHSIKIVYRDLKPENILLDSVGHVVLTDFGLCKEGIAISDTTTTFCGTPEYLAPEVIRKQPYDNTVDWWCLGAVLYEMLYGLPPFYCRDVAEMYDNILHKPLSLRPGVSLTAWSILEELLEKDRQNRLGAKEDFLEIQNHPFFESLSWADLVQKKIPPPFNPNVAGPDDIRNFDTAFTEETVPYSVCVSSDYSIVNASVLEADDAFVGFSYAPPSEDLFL
The experiment in a line: Inhibition of SGK3 (unknown origin) assessed as residual activity at 1000 nM by KINOMEscan analysis relative to control.

Chain of Ephrin type-A receptor 2 (Homo sapiens) (P29317 whole entry): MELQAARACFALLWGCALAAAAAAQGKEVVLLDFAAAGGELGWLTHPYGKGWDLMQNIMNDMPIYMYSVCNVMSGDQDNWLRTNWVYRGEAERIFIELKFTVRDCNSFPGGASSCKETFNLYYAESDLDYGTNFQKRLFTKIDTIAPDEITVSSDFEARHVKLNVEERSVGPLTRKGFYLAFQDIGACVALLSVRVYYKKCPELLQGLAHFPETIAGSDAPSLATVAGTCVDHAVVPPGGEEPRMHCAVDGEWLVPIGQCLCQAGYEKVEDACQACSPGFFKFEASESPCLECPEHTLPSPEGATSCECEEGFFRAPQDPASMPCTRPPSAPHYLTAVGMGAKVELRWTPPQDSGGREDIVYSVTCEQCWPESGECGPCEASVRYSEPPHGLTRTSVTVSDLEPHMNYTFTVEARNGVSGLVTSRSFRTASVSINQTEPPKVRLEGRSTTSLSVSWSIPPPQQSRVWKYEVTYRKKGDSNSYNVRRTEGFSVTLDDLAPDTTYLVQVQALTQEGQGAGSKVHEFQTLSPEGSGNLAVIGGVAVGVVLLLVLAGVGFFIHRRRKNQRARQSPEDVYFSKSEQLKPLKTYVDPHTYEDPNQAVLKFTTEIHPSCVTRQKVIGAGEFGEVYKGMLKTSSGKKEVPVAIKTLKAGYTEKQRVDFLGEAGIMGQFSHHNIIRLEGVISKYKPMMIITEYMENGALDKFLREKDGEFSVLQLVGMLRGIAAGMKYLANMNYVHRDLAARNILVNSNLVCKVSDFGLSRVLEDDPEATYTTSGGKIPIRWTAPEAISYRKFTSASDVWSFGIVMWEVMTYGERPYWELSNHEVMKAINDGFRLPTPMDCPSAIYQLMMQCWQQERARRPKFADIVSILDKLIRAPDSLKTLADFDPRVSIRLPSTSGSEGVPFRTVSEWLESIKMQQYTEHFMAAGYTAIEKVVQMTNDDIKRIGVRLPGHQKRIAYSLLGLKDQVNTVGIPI
Chain of Mitogen-activated protein kinase kinase kinase 1 (Homo sapiens) (Q13233 whole entry): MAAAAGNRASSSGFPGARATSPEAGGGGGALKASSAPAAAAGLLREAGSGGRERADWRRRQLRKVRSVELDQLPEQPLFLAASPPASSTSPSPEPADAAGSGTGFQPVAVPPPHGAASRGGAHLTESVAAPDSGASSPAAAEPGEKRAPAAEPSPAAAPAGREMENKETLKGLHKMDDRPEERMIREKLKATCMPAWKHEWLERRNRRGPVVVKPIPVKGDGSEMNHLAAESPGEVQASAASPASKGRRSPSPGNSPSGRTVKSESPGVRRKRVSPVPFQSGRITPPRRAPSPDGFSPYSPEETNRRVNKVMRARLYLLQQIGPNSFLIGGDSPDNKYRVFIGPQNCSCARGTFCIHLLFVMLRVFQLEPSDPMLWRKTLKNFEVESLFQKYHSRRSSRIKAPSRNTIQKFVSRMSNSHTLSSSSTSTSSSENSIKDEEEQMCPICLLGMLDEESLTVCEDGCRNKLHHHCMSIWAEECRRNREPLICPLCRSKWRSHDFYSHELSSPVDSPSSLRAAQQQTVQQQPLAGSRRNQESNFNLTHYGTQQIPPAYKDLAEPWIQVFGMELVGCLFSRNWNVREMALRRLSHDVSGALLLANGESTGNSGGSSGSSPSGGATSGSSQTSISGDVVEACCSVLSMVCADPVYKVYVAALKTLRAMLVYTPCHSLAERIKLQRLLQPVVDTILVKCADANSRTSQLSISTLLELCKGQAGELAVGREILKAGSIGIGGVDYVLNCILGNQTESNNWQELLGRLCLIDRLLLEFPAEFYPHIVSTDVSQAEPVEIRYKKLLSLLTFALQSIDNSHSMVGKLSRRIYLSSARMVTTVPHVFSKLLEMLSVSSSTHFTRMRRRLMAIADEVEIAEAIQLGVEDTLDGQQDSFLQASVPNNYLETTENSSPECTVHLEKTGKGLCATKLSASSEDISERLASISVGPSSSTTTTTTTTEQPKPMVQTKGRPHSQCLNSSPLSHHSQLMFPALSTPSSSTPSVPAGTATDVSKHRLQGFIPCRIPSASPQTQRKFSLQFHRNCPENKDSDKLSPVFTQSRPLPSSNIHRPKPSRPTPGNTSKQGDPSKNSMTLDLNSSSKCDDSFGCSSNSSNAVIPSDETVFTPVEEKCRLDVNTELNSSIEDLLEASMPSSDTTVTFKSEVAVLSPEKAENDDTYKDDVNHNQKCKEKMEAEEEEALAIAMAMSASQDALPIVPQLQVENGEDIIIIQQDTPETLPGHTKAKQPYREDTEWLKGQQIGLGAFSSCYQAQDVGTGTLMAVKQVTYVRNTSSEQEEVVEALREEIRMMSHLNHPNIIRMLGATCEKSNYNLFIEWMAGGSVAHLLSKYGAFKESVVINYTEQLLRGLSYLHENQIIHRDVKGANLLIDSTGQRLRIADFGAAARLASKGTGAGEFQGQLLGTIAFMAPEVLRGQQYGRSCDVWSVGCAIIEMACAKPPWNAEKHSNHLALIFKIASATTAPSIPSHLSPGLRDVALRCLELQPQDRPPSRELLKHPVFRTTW

`COc1cc2ncnc(N[C@H](C)c3cccc4ccccc34)c2cc1OC`: the Activity in experiment [1] worked out at 94%; in experiment [2] it was 100%; in experiment [3] it was 96%; in experiment [4], 100%; in experiment [6] it was 100%; in experiment [7], 100%. The ΔTm in experiment [5] was 2.5 °C.

With `CNCc1ccccc1-c1csc([C@@H](C)Nc2nc(C)nc3cc(OC)c(OC)cc23)c1` [BAY-293], the ΔTm in experiment [5] was determined as 3.17 °C.

Regarding `COc1cc2nc(C)nc(N[C@H](C)c3cccc(-c4cn[nH]c4)c3)c2cc1OC`, the Activity in experiment [1] came out at 45%; in experiment [2] it was 75%; in experiment [3], 100%; in experiment [4], 94%; in experiment [6] it was 77%; in experiment [7], 90%.

What is called ΔTm is the change in melting temperature against a reference sample.
